Experiments:
[1] = system: human sperm; experiment: Effect of various concentrations on the motility of human sperm; format: cell-based; conditions: for concentration shown to be spermiostatic: motility of human sperm; for spermiostatic effects: lower concentrations of albumin and dextran
Description: The effects of various concentrations of magnesium chloride, calcium chloride, ferrous sulfate, copper sulfate, and ferrous gluconate on the motility of human sperm were studied.

[2] = Effect on viscosity of cervical mucus; conditions: concentrations from 0.310% to a range of 1-2.5%

[Ca+2].[Cl-].[Cl-] [Calcium chloride]
concentration shown to be spermiostatic [1]: 25 mM

O=S(=O)([O-])[O-].[Cu+2] [Copper sulfate]
immobilization of sperm ([1]; 25 mM solutions): 93.3% | immobilization of sperm ([1]; 37.5 mM solutions): completely immobilized all the sperm | concentration shown to be spermiostatic [1]: 6.25 mM

O=C1O[C@H]([C@@H](O)CO)C(O)=C1O [L-ascorbic acid]
overall viscosity of the mucus [2]: increases in direct relationship with increasing concentrations

[Cl-].[Cl-].[Mg+2] [magnesium chloride]
concentration shown to be spermiostatic [1]: 35 mM

Ferrous sulfate
concentration that completely arrested the motility of human sperm ([1]; complete arrest of motility): 10 mM

albumin
sperm completely immobilized ([1]; 20% albumin): ~97% | sperm completely immobilized ([1]; 40% albumin): ~97% | sperm motility ([1]; albumin concentration 10%): decreased sperm motility almost close to that of 12.5 mM concentration of ferrous gluconate | spermiostatic effects [1]: not significant

dextran
sperm immobilized ([1]; 1.25% solution of dextran): ~95% | spermiostatic effects [1]: not significant

ferrous gluconate
immobilization of sperm ([1]; 25 mM solutions): 97.4% | immobilization of sperm ([1]; 37.5 mM solutions): completely immobilized all the sperm | concentration shown to be spermiostatic [1]: 12.5 mM

ferrous gluconate [dihydrate form of ferrous gluconate]
onset of spermiostatic effect ([1]; in the presence of the dihydrate form): immediate

From patent US20200315960A1, “DRUG DELIVERY DEVICE AND METHOD” (BIORINGS LLC, priority 2019, published 2020)
